Source: patent publication US4293713A, “Novel 1,1,3,5-substituted biuret compound and a pharmaceutical composition containing the same” (priority 1979, dated 1981)
Where two headings read alike, the source gives them in different places.

What was measured:
ddy strain of male mice [1] = assay: Acute toxicity (oral, 7 days observation); format: in vivo; conditions: oral, mice, 7 days
Protocol: (§1) Next, several tests for determining the pharmacological properties, in that acute toxicity, anti-pyretic activity, analgesic activity and anti-inflammatory activity of the present 1,1,3,5-substituted biuret compounds of the formula (1) were conducted and the test results are shown in Table (2). In the tests, each compounds to be tested was used as a suspension in 0.25% carboxymethylcellulose solution. Methods for testing are explained as follows:
The ddy strain of male mice (body weight, 20-25 g) were used as test animals. The mice were fasted overnight and the compound to be tested was administered orally. […] The lethal dose (mg/kg, body weight) of the test compound was determined in connection with the death number of mice/the number of mice tested. In Table 2, the values indicated with Δ marks are 50% lethal dose, LD50 (mg/kg, body weight).

[2] = system: Wistar strain of male rats; assay: Anti-pyretic activity (dry-yeast induced fever); format: in vivo, rat (Wistar strain; conditions: oral, up to 4 hours after administration, dose not given
Protocol: as §1
According to the method reported by Tanabe [Folia Pharmacologia Japonica, Vol. 73, pp. 803 (1977)], the Wistar strain of male rats (150-180 g body weight) were used as test animals. The rats were fasted overnight, and 1 ml/100 g (body weight) of 10% dry-yeast suspension were subcutaneously injected on the back of the rats. Five hours after the injection, the test compound was administered orally, then the body temperature of the rat was measured at time sequences. Anti-pyretic activity of the test compound was determined as the FI (febril index) by integrating pyrogenetic curve up to 4 hours after the administration of the test compound with time, and indicated as inhibitory ratio (%) shown by the following formula, [formula]

ddy strain of male mice [3] = assay: Analgesic activity, acetic acid-induced stretching method; format: in vivo, mouse (ddy strain; conditions: Mus musculus
Protocol: as §1
According to the method reported by Koster et al., [Fed. Proc., Vol. 18, pp. 412 (1959)], the ddy strain of male mice (body weight, 20-25 g) were used as test animals. The mice were fasted overnight, 100 mg/kg body weight of the test compound was administered orally, then 1 hour after the administration, 0.2 ml of 0.7% acetic acid solution was injected intraperitoneally. The acetic acid-induced stretching symptom of mouse was observed. Analgesic activity of the test compound was calculated as the inhibitory ratio (%). In Table 2, the values in Parentheses show the data obtained from the test by using the dosage other than 100 mg/kg body weight. Further, the values indicated with Δ marks show 50% effective dose, ED50 (mg/kg body weight).

ddy strain of male mice [4] = assay: Analgesic activity, Haffner method; format: in vivo, mouse (ddy strain; conditions: with threshold morphine hydrochloride s.c.
Protocol: as §1
According to the modified method reported by Fujimura et al., [Bulletin of the Institute for Chemical Research, Kyoto University, No. 25, pp. 36 (1951)], the ddy strain of male mice (body weight, 20-25 g) were used as test animals. The mice were fasted overnight, 100 mg/kg body weight of the test compound was administered orally, then 45 minutes after the administration, the threshold amount (1.5-2.5 mg/kg body weight) of morphine hydrochloride was injected subcutaneously. Then 1-hour pain reaction of the mouse caused by a clamp was observed. Analgesic activity of the test compound was calculated as the inhibitory ratio (%). In Table 2, the values in parentheses show the data obtained from the test by using the dosage other than 100 mg/kg body weight. Further, the values indicated with Δ marks show 50% effective dose, ED50 (mg/kg body weight).

[5] = system: Wistar strain of male rats; assay: Anti-inflammatory activity, acute carrageenin-induced inflammatory test; format: in vivo, rat (Wistar strain; conditions: Rattus norvegicus
Protocol: as §1
According to the method of acute carrageenin-induced inflammatory test [Folia Pharmacologia Japonica, Vol. 56, pp. 575 (1960)], the Wistar strain of male rats (body weight, 150-180 g) were used as test animals. The rats were fasted overnight, 100 mg/kg body weight of the test compound was administered orally, then 1 hour after the administration, 0.1 ml of 1% carrageenin solution, as the inflammation inducing agent, was injected subcutaneously to the hindpaw of the rat and the volume of the hindpaw was measured at time sequences. Anti-inflammatory activity of the test compound was calculated as inflammation inhibitory ratio (%) at 3 hours after the injection of the inflammation inducing agent.

[6] = po, read-out: Analgesic activity, acetic acid-induced stretching method, inhibitory ratio
[7] = 100 mg/kg oral, rats, 3 hours after carrageenin, read-out: Anti-inflammatory activity, inflammation inhibitory ratio
[8] = po, 3 h, read-out: Anti-inflammatory activity, inflammation inhibitory ratio
[9] = 100 mg/kg oral, mice, read-out: Analgesic activity, acetic acid-induced stretching method, inhibitory ratio

Row | SMILES | Acute toxicity, death number of mice/number of mice tested (ddy strain of male mice [1]; 1000 mg/kg) | Acute toxicity, death number of mice/number of mice tested (ddy strain of male mice [1]; 2000 mg/kg) | Anti-pyretic activity, inhibitory ratio of febril index (FI) [2] [%] | inhibition in vivo at 100 mg/kg (ddy strain of male mice [3]; [6]) [%] | Analgesic activity, Haffner method, inhibitory ratio (ddy strain of male mice [4]; 100 mg/kg oral) [%] | inhibition in vivo at 100 mg/kg [5, 7] [%] | Acute toxicity, death number of mice/number of mice tested (ddy strain of male mice [1]; 500 mg/kg) | ED50 (ddy strain of male mice [3]; oral, mice, range in parentheses, read-out: Analgesic activity, acetic acid-induced stretching method, 50% effective dose, ED50 (values with Δ marks)) [mg/kg] | inhibition in vivo at 100 mg/kg [5, 8] [%] | inhibition in vivo at 100 mg/kg (ddy strain of male mice [3]; [9]) [%] | inhibition in vivo at 100 mg/kg ([5]; po, 2 h, read-out: Anti-inflammatory activity, inflammation inhibitory ratio (2 hours value)) [%] | inhibition in vivo at 60 mg/kg (ddy strain of male mice [3]; 60 mg/kg oral, mice, read-out: Analgesic activity, acetic acid-induced stretching method, inhibitory ratio) [%] | inhibition in vivo at 100 mg/kg ([5]; 100 mg/kg oral, rats, 2 hours value, read-out: Anti-inflammatory activity, inflammation inhibitory ratio (2 hours value)) [%] | Analgesic activity, Haffner method, inhibitory ratio (ddy strain of male mice [4]; 200 mg/kg oral) [%]
1 | CN(C)C(=O)N(C)C(=O)Nc1ccccc1F [Compound No. 2, 1,1,3-Trimethyl-5-(2-fluorophenyl)biuret] | 1/4 | 4/4 | 76 | 62.5 | 75 | 63 |  |  |  |  |  |  |  | 
2 | CCCCN(C)C(=O)N(C)C(=O)Nc1ccccc1 [compound 35, 1-n-Butyl-1,3-dimethyl-5-phenylbiuret] | 0/4 | 3/4 | 35 | 37.5 | 25 |  |  |  |  |  |  |  |  | 
3 | CSc1ccc(NC(=O)N(C)C(=O)N(C)C)cc1 [compound 28, 1,1,3-Trimethyl-5-(4-methylthiophenyl)biuret] | 0/4 | 4/4 |  | 50 |  |  |  |  |  |  |  |  |  | 
4 | COc1cc(NC(=O)N(C)C(=O)N(C)C)cc(OC)c1OC [Compound No. 19, 1,1,3-Trimethyl-5-(3,4,5-trimethoxyphenyl)biuret] | 2/4 |  | 23 |  | 62.5 |  | 0/4 | 38 | 30 |  |  |  |  | 
5 | CCN(C(=O)Nc1ccccc1)C(=O)N(C)C [compound 30, 1,1-Dimethyl-3-ethyl-5-phenylbiuret] | 0/4 | 3/4 | 12 | 62.5 |  |  |  |  | 23 |  |  |  |  | 
6 | Cc1cccc(NC(=O)N(C)C(=O)N(C)C)c1 [compound 21, 1,1,3-Trimethyl-5-(3-methylphenyl)biuret] |  | 2/4 | 31 | 75 | 37.5 |  |  |  | 28 |  |  |  |  | 
7 | CN(C)C(=O)N(C)C(=O)Nc1ccc(Cl)c(Cl)c1 [compound 10, 1,1,3-Trimethyl-5-(3,4-dichlorophenyl)biuret] | 1/4 | 3/4 | 43 | 50 | 62.5 |  |  |  |  |  |  |  |  | 
8 | CC(=O)c1ccc(NC(=O)N(C)C(=O)N(C)C)cc1 [compound 27, 1,1,3-Trimethyl-5-(4-acetylphenyl)biuret] | 4/4 |  | 36 |  | 37.5 |  | 0/4 |  |  | 62.5 | 31 |  |  | 
9 | COc1ccc(NC(=O)N(C)C(=O)N(C)C)cc1OC [compound 18, 1,1,3-Trimethyl-5-(3,4-dimethoxyphenyl)biuret] | 0/4 | 4/4 | 18 | 75 | 62.5 |  |  |  |  |  |  |  |  | 
10 | CN(C)C(=O)N(C)C(=O)Nc1ccccc1Cl [compound 5, 1,1,3-Trimethyl-5-(2-chlorophenyl)biuret] |  | 0/4 | 66 | 50 | 37.5 | 38 |  |  |  |  |  |  |  | 
11 | CN(C)C(=O)N(C)C(=O)Nc1c(F)c(F)cc(F)c1F [compound 4, 1,1,3-Trimethyl-5-(2,3,5,6-tetrafluorophenyl)-biuret] | 4/4 |  | 33 | 87.5 | 50 |  | 0/4 |  | 24 |  |  |  |  | 
12 | Cc1ccc(NC(=O)N(C)C(=O)N(C)C)cc1C [Compound No. 25, 1,1,3-Trimethyl-5-(3,4-dimethylphenyl)biuret] |  | 1/4 | 31 |  |  |  |  |  |  |  |  | 87.5 |  | 
13 | CN(C)C(=O)N(C)C(=O)Nc1ccc(Cl)cc1Cl [compound 8, 1,1,3-Trimethyl-5-(2,4-dichlorophenyl)biruet] | 0/4 | 3/4 | 42 | 50 | 75 |  |  |  |  |  |  |  |  | 
14 | CN(C)C(=O)N(C)C(=O)Nc1ccc(N(C)C)cc1 [compound 14, 1,1,3-Trimethyl-5-(4-dimethylaminophenyl)biuret] |  | 0/4 | 26 | 62.5 | 50 |  |  |  |  |  |  |  | 32 | 
15 | Cc1cccc(NC(=O)N(C)C(=O)N(C)C)c1C [compound 23, 1,1,3-Trimethyl-5-(2,3-dimethylphenyl)biuret] | 1/4 | 4/4 | 40 |  | 25 |  |  |  |  | 50 |  |  |  | 
16 | CCCN(C(=O)Nc1ccccc1)C(=O)N(C)C [compound 31, 1,1-Dimethyl-3-n-propyl-5-phenylbiuret] |  | 0/4 | 12 | 37.5 |  |  |  |  |  |  |  |  |  | 62.5
17 | CCCCN(C(=O)Nc1ccccc1)C(=O)N(C)C [compound 32, 1,1-Dimethyl-3-n-butyl-5-phenylbiuret] | 0/4 | 3/4 | 18 | 37.5 | 31 |  |  |  |  |  |  |  |  | 
18 | Cc1c(Cl)cccc1NC(=O)N(C)C(=O)N(C)C [compound 26, 1,1,3-Trimethyl-5-(2-methyl-3-chlorophenyl)biuret] | 1/4 | 4/4 | 45 | 75 | 25 |  |  |  |  |  |  |  |  | 
